Drawing on US20230322822A1, “ARYL PHOSPHOROUS OXIDE COMPOUNDS AND USE THEREOF” (Chengdu Di'ao Jiuhong Pharmaceutical Factory, priority 2020, published 2023), this text covers IC50 and GI50 for three compounds.

Where two headings read alike, the source gives them in different places.

Test [1] concerns the target EGFR-T790M/L858R (Homo sapiens (Human), UniProt P00533, L858R/T790M). Description: Enzymatic activity test (ADP-Glo) EGFR-T790M/L858R. It counts as biochemical. Conditions: kinase. The procedure:
(§1) • 1. […] Test information:
(§2) To assess the effect of compounds on the activity of wild-type and mutant EGFR kinases, kinase activity was tested by measuring ATP consumption in an enzymatic reaction using an ADP-Glo (Promega Corporation) kit. Samples to be tested were dissolved in DMSO and diluted in a gradient. In a microplate, an EGFR kinase, a reaction buffer (containing Tris-HCl with a pH of 7.5, MgCl2, DTT and BSA), a kinase substrate Poly(Glu4, Tyr1) and a sample (a total volume of 20 μL per well) were added per well, while a blank control (no enzyme and sample) and a negative control (no sample) were set up; incubated for 15 minutes at 23° C.; added with 5 μL of ATP, and reacted at 23° C. for 60 minutes; added with ADP-Glo Reagent, and continuously reacted for 40 minutes at room temperature to inactivate the redundant ATP; then, added with a Kinase Detection Reagent, and reacted at room temperature for 30 minutes, then the chemiluminescence intensity L of each well was measured. […] IC50 values were calculated according to the above calculation using 4Parameter Logistic Model in XLfit software. • 3.
(In general: ADP-Glo first removes unused ATP, then detects ADP through luciferase.)

Test [2] deals with EGFR-C797S/T790M/L858R (Homo sapiens (Human), UniProt P00533, C797S/L858R/T790M). Description: Enzymatic activity test (ADP-Glo) EGFR-C797S/T790M/L858R. It counts as biochemical. To be noted: kinase. The essentials: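 Each EGFR mutant was preincubated with compound, Poly(Glu4,Tyr1) and Tris-HCl pH 7.5 buffer (MgCl2, DTT, BSA) for 15 min at 23 °C. ATP was then added for 60 min at 23 °C. ADP-Glo luminescence gave ATP consumption, and IC50 came from a 4-parameter logistic fit.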
Chain of EGFR-C797S/T790M/L858R (P00533 25-1210 T790M/C797S/L858R): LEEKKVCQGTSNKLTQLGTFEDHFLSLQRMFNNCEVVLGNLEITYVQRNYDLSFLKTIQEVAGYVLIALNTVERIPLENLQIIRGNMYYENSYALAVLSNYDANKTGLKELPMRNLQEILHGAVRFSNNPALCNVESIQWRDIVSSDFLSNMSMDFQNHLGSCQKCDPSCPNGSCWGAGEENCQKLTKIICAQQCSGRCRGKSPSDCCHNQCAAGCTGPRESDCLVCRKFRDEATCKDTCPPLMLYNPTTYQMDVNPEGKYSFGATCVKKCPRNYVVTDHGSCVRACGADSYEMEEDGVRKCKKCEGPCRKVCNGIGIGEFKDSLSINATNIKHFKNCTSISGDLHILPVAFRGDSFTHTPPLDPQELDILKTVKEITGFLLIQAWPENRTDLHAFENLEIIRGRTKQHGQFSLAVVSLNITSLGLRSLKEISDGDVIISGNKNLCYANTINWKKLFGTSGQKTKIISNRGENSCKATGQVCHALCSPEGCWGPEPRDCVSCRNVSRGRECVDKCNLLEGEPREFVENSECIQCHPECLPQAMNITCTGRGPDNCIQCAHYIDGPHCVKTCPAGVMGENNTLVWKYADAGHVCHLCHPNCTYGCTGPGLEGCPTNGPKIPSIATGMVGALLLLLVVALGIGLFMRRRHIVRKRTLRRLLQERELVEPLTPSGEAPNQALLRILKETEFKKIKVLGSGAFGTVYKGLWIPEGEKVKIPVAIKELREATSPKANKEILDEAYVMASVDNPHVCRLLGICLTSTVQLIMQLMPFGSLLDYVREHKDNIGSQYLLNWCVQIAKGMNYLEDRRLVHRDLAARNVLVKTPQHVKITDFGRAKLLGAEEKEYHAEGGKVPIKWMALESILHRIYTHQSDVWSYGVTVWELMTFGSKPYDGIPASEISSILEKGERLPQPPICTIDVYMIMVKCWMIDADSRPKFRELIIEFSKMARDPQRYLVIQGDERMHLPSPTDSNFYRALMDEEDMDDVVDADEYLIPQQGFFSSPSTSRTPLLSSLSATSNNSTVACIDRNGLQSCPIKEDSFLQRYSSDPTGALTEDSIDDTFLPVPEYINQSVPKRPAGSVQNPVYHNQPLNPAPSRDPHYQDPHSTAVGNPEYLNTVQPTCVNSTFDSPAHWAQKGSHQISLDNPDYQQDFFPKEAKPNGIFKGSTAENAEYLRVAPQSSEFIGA

Test [3] has as its target EGFR-WT (Homo sapiens (Human), UniProt P00533). Description: Enzymatic activity test (ADP-Glo) EGFR-WT. It counts as biochemical. Conditions: kinase.
For test [4], the target named is EML4-ALK kinase (Homo sapiens (Human), UniProt Q9HC35+Q9UM73). The test is described as follows: Enzymatic activity test 2 (ADP-Glo) EML4-ALK kinase. Type of test: biochemical. The procedure:
as §1
as §2, with “EML4-ALK” for “wild-type and mutant EGFR”, “EML4-ALK” for “EGFR”, “IGF1” for “Poly(Glu4, Tyr1)”, “up;” for “up; incubated for 15 minutes at 23° C.;”, “kinase detection reagent,” for “Kinase Detection Reagent,”

For test [5], the system named is PC9 cells expressing EGFR-C797S/T790M/Del19. Description: Cell anti-proliferation test 2 (SRB), PC9 EGFR-C797S/T790M/Del19. Type of test: cell-based. Conditions: Homo sapiens, read-out: EGFR-C797S/T790M/Del19 GI50.
The subject of test [6] is Ba/F3-EML-4-ALK-WT. Description: Cell anti-proliferation test 3 (CTG), Ba/F3-EML-4-ALK-WT. Type of test: cell-based. Conditions: Mus musculus, 72 h, BaF3 cells, Day 3.
The subject of test [7] is Ba/F3 cells expressing EGFR-T790M/Del19. The test is described as follows: Cell anti-proliferation test 1 (CTG), BaF3 EGFR-T790M/Del19. Conditions: Mus musculus, BaF3, 72 h, read-out: EGFR-T790M/Del19 IC50.
Test [8] concerns Ba/F3 cells expressing EGFR-C797S/T790M/L858R. The test is described as follows: Cell anti-proliferation test 1 (CTG), BaF3 EGFR-C797S/T790M/L858R. Conditions: Mus musculus, BaF3, 72 h, read-out: EGFR-C797S/T790M/L858R IC50.
Test [9] has as its system BaF3 EML-4-ALK-L1196M cell line. Description: Cell anti-proliferation test 4 (CCK-8), BaF3 EML-4-ALK-L1196M. Type of test: cell-based. To be noted: Ba/F3 EML4-ALK-L1196M, BaF3 EML-4-ALK-L1196M cells, CCK-8, 72 hours. The method, then:
BaF3 EML-4-ALK-L1196M cell line, brand: KYinno, article number: KC-0102
Cell Counting Kit-8 (CCK-8), brand: Targetmol, article number: C0005
10 μL of the compound diluted in gradient was added to the cell plate to give final concentrations of the compounds as 500, 166.67, 55.56, 18.52, 6.17, 2.06, 0.69, 0.23 and 0.08 nM. • d.

Chain of EGFR-T790M/L858R (P00533 25-1210 T790M/L858R): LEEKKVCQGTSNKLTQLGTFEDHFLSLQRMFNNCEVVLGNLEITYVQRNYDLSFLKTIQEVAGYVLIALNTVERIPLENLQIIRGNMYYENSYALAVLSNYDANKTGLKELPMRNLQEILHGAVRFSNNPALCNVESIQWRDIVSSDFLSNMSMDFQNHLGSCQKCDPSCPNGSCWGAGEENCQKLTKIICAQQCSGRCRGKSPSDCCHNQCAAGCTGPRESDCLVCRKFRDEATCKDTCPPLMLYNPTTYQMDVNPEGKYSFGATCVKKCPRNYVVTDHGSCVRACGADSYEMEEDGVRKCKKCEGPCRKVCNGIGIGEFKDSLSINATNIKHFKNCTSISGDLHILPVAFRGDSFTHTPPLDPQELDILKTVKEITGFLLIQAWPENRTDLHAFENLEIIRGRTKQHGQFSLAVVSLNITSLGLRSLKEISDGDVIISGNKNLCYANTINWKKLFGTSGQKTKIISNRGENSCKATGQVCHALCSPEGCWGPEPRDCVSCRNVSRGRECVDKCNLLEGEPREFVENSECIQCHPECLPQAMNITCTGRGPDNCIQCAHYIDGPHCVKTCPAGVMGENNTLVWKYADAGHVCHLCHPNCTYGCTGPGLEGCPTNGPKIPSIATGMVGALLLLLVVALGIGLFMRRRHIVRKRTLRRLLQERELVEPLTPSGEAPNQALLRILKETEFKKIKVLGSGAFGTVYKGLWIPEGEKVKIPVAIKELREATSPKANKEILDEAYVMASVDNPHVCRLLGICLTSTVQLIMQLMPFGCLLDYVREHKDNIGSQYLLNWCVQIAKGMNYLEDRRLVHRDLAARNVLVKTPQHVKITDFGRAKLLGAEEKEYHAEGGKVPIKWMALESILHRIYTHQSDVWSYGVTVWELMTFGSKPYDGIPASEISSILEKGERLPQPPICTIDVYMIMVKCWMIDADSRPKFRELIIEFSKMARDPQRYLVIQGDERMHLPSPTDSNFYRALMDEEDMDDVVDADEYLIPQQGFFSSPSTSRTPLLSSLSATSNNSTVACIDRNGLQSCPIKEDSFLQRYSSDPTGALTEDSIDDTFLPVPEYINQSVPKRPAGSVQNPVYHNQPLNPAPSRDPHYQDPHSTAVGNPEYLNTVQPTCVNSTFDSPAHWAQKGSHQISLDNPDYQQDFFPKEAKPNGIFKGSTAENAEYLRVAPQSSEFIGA
Chain of EML4-ALK kinase (Q9UM73 other isoform, or with tags, fused parts or gaps): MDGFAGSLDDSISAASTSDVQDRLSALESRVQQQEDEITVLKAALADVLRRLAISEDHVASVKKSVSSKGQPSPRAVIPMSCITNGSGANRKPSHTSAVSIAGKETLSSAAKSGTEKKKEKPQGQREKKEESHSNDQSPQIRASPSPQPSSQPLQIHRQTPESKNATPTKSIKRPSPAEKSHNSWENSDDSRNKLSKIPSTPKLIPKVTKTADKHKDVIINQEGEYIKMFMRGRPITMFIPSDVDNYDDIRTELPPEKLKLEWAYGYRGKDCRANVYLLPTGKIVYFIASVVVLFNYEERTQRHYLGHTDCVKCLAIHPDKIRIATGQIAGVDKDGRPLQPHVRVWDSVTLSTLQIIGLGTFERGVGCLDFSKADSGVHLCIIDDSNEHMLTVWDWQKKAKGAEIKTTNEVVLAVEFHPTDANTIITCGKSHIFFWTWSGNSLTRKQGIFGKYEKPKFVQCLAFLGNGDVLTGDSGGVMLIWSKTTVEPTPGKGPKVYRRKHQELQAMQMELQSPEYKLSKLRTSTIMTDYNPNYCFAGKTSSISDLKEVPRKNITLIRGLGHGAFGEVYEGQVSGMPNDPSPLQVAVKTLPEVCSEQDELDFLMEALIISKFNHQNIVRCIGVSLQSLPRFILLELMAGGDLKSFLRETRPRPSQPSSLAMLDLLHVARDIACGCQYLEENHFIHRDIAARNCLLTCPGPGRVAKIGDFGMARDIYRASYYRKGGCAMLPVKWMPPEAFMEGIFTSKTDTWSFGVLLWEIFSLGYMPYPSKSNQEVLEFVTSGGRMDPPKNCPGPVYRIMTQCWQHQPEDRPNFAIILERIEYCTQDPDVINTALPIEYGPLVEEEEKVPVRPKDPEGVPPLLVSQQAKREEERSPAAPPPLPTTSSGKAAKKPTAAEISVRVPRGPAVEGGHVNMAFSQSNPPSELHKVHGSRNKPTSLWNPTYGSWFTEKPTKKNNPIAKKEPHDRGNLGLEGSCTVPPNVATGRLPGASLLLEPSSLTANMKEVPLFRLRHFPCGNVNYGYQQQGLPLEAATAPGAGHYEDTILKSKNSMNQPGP
Chain of EGFR-WT (P00533 25-1210): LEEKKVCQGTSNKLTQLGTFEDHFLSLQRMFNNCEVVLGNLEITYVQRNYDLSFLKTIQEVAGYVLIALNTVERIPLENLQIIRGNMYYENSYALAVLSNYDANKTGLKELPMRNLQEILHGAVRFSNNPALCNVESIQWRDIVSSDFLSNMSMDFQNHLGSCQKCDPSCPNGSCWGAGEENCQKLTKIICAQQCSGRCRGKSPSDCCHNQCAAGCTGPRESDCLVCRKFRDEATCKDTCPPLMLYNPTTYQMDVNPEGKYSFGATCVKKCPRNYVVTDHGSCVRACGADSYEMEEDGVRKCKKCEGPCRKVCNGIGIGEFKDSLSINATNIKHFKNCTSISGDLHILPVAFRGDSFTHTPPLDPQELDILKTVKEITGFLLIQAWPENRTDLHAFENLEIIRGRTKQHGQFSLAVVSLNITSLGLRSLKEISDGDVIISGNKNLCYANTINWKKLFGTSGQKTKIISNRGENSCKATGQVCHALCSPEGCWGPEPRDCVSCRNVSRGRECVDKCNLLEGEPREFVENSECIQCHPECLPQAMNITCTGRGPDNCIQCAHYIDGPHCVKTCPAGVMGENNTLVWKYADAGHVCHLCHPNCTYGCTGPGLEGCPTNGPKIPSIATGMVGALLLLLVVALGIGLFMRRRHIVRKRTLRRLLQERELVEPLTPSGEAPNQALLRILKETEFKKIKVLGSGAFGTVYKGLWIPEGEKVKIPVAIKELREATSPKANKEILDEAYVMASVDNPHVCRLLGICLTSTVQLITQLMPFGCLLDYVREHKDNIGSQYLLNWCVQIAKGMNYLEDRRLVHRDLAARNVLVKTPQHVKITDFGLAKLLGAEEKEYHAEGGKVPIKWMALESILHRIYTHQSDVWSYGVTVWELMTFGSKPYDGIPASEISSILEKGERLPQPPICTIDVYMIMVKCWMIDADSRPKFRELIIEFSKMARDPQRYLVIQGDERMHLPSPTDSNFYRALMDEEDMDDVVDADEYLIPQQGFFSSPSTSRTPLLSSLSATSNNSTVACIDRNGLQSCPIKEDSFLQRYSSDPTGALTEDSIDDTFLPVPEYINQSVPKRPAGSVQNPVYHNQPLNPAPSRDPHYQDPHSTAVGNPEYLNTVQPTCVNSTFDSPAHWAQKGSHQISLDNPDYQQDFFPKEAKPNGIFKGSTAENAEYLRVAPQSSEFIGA

`COc1cc(N2CCC(N3CCN(C)CC3)CC2)c(Cl)cc1Nc1ncc(Br)c(Nc2ccc(C)cc2P(C)(C)=O)n1` [Compound 14]: the IC50 in test [1] is 16.6 nM; in test [2], 10.1 nM; in test [3], 65.9 nM; in test [4] it was 12.9 nM; in test [6], 7.4 nM; in [7], 2.3 nM. Moreover, the IC50 in test [8] came to 76.4 nM. In addition, the GI50 in test [5] (PC-9, PC9 cells, SRB, 72 hours) was 6.6 nM.
As to `COc1cc(N2CCC(N3CCN(C)CC3)CC2)c(C)cc1Nc1ncc(Br)c(Nc2ccc(C)cc2P(C)(C)=O)n1` [Compound 2], the GI50 in [5] (PC-9, 72 h) is 15.6 nM. The IC50 was found to be 8 nM in test [6]; 15.1 nM in [9] (first test, read-out: First test IC50); 10.4 nM in test [9] (second test, read-out: Second test IC50); 6.5 nM in [7]; 64.1 nM in test [8].
On to `COc1cc(N2CCC(N(C)C)CC2)c(C)cc1Nc1ncc(Br)c(Nc2ccc(C)cc2P(C)(C)=O)n1` [Compound 6], for which the IC50 in test [1] came out at 28.8 nM; in test [2] it was 16.8 nM; in test [4] it was 14.6 nM; in [6], 4.8 nM; in [7], 10.5 nM; in test [8], 74.6 nM. Also, the GI50 in test [5] (PC-9, PC9 cells, SRB, 72 hours) came out at 20.8 nM.
